# Data published in patent US12122785B2, “Substituted pyridines, pyridazines, pyrimidines, and 1,2,4-triazines as TYK2 inhibitors” (Sudo Biosciences Limited, priority 2021, dated 2024).
# How the values were obtained:
# [1] = target: T1, JAK1 kinase domain (JH1) (Homo sapiens, UniProt P23458); experiment: HTRF-based selectivity assay, JAK1 catalytic domain; type: biochemical; conditions: 21.43 μM ATP, read-out: JAK-JHI (IC50)
# T1 construct: recombinant purified His or GST-tagged catalytic domain for each enzyme; made in house
# T1 sequence (P23458 875-1153 limits assumed): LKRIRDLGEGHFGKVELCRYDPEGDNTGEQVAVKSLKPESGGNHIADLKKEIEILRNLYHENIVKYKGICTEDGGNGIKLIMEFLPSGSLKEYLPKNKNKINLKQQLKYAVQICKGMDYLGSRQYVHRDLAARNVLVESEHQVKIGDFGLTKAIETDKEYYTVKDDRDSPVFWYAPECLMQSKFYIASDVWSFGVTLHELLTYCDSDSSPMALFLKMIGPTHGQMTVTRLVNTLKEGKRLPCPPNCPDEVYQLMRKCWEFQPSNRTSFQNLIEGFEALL
# Method: (§1) Example B-2: HTRF-Based Selectivity Assay
# (§2) The ability of compounds to inhibit the activity of JAK1, JAK2, JAK3 and TYK2 is measured using a recombinant purified His or GST-tagged catalytic domain for each enzyme (JAK1, JAK2 and TYK2 are generated in-house; JAK3 was purchased from Carna biosciences, Cat #08-046) in an HTRF format biochemical assay. The reactions employs a commercial peptide substrate from Cisbio (Cat #62TK0PEC). The basic assay protocol is as follows: first, 2.5 μL of diluted compounds (4×) in DMSO are dispensed into a 384-well Optiplate. Next, 2.5 μL of enzyme (final concentrations for enzymes are: TYK2—700 ng/mL, JAK1—80.6 ng/mL, JAK2—2.1 ng/mL and JAK3—171.8 ng/mL) is added and incubated at RT for 5-20 min. Finally, 5 μl of mixture of 2×ATP [Final concentration 20 μM for TYK2, 21.43 μM for JAK1, 14.7 μM for JAK2 and 2.12 μM for JAK3]+2× Substrate [Final concentration 217 nM for TYK2, 454.7 nM for JAK1, 200 nM for JAK2 and 257.4 nM for JAK3] is added to 384 well Optiplate. Composition of Kinase assay buffer used in the assay is as follows: HEPES 50 mM, EGTA 1 mM, MgCl2 10 mM, DTT 2 mM, Tween-20 0.01% and water. Then the plates are shaken and then incubated at 26.5° C. for 60 min.
# [2] = target: T2, TYK2 kinase domain (JH1) (Homo sapiens, UniProt P29597); experiment: HTRF-based selectivity assay, TYK2 catalytic domain; type: biochemical; conditions: 20 μM ATP
# T2 construct: recombinant purified His or GST-tagged catalytic domain for each enzyme; made in house
# T2 sequence (P29597 897-1176 limits assumed): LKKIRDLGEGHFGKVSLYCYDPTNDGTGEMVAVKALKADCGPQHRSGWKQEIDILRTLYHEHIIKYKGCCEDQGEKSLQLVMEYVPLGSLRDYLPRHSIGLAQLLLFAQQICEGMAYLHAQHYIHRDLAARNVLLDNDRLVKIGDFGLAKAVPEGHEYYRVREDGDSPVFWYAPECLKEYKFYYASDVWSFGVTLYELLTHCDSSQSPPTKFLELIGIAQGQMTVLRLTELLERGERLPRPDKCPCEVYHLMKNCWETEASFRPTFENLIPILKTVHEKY
# Method: as §1, §2
# [3] = system: IFNγ-stimulated HEK-Blue IFNγ reporter cells; experiment: HEK-Blue IFNγ reporter assay (STAT1-inducible SEAP) for determining selectivity; type: cell-based; conditions: 50 ng/mL human recombinant IFNγ, 24 hours, read-out: IFN-γ SEAP selectivity assay IC50
# Method: (§3) Example B-3: HEK-Blue™ IL-2 and IFNγ Reporter Assays for Determining Selectivity
# (§4) HEK-Blue™ IL-2 and IFNγ reporter cells with a stably-integrated cytokine receptor and STAT5 or STAT1 express STAT-inducible secreted embryonic alkaline phosphatase (SEAP) reporter gene upon cytokine stimulation. These cells were plated in DMEM (Gibco) containing 10% heat-inactivated FBS (Gibco) and 100 U/mL PenStrep (Gibco) at 37° C. under 5% CO2 conditions for 20-22 hours. The cells were then pretreated with serially diluted test compounds for 60 min prior to stimulation with either 4 ng/mL human recombinant IL-2 (Miltenyl Biotech) or 50 ng/mL human recombinant IFNγ (InvivoGen) for 24 hours. SEAP induction was measured using the QUANTI-Blue™ Solution (InvivoGen) according to the manufacturer's instructions.
# [4] = system: TYK2 pseudokinase (JH2); IFNα-stimulated HEK-Blue IFNα/β cells; experiment: HEK-Blue IFNα/β reporter assay (STAT1-inducible SEAP) for profiling TYK2 pseudokinase (JH2) inhibition; type: cell-based; conditions: 1 ng/mL human recombinant IFNα, SEAP readout, read-out: IFNα (TYK2 inhibitory activity, IC50)
# Method: (§5) Example B-1: HEK-Blue™ IL-23 and IFNα/β Reporter Assays for Profiling TYK2 Pseudokinase (JH2) Inhibition
# (§6) HEK-Blue™ IL-23 and IFNα/β cells with a stably-integrated cytokine receptor and STAT3 or STAT1 express STAT-inducible secreted embryonic alkaline phosphatase (SEAP) reporter gene upon cytokine stimulation. These cells are plated in DMEM (Gibco) containing 10% heat-inactivated FBS (Gibco) and 100 U/mL PenStrep (Gibco) at 37° C. under 5% CO2 conditions for 20-22 hours. The cells are then pretreated with serially diluted test compounds for 60 min prior to stimulation with either 10 ng/mL human recombinant IL-23 (Miltenyl Biotech) or 1 ng/mL human recombinant IFNα (InvivoGen) for 22-24 hours for IL-23 or 16-18 h for IFNα. SEAP induction is measured using the QUANTI Blue™ Solution (InvivoGen) according to the manufacturer's instructions.
# [5] = system: IL-2-stimulated HEK-Blue IL-2 reporter cells; experiment: HEK-Blue IL-2 reporter assay (STAT5-inducible SEAP) for determining selectivity; type: cell-based; conditions: 4 ng/mL human recombinant IL-2, 24 hours
# Method: as §3, §4
# [6] = system: TYK2 pseudokinase (JH2); IL-23-stimulated HEK-Blue IL-23 cells; experiment: HEK-Blue IL-23 reporter assay (STAT3-inducible SEAP) for profiling TYK2 pseudokinase (JH2) inhibition; type: cell-based; conditions: 10 ng/mL human recombinant IL-23, SEAP readout, read-out: IL23 (TYK2 inhibitory activity, IC50)
# Method: as §5, §6
# [7] = target: T3, JAK2 kinase domain (JH1) (Homo sapiens, UniProt O60674); experiment: HTRF-based selectivity assay, JAK2 catalytic domain; type: biochemical; conditions: 14.7 μM ATP
# T3 construct: recombinant purified His or GST-tagged catalytic domain for each enzyme; made in house
# T3 sequence (O60674 849-1124 limits assumed): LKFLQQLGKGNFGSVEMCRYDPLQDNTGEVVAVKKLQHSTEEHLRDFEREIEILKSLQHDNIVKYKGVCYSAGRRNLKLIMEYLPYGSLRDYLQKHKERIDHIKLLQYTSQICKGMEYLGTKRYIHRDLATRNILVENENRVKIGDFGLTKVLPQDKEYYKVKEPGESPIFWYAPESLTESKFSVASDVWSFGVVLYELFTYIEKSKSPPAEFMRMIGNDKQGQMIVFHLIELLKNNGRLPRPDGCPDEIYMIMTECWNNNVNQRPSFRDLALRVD
# Method: as §1, §2
Compound,IC50 [1],IC50 [2],IC50 [3],IC50 [4],IC50 [5],IC50 [6],IC50 [7]
"[2H]C([2H])([2H])NC(=O)c1cnc(NC(=O)NC)cc1Nc1cccc2c1N(C)Cc1cn(C)nc1-2 [Compound 25, 4-((2,5-dimethyl-4,5-dihydro-2H-pyrazolo[4,3-c]quinolin-6-yl)amino)-N-(methyl-d3)-6-(3-methylureido)nicotinamide]",> 1000 nM,> 1000 nM,> 1000 nM,< 30 nM,> 1000 nM,< 30 nM,> 1000 nM
"[2H]C([2H])([2H])NC(=O)c1nnc(NC(=O)NC)cc1Nc1nccc2c1N(C)C([2H])([2H])c1cn(C)nc1-2 [Compound 74, 4-((2,5-dimethyl-4,5-dihydro-2H-pyrazolo[4,3-c][1,7]naphthyridin-6-yl-4,4-d2)amino)-N-(methyl-d3)-6-(3-methylureido)pyridazine-3-carboxamide]",,,30 to 300 nM,< 30 nM,> 1000 nM,< 30 nM,
"[2H]C([2H])([2H])NC(=O)c1cnc(NC(=O)C2CC2)cc1Nc1cccc2c1N(C)C([2H])([2H])c1cc(C)nn1-2 [Compound 57, 6-(cyclopropanecarboxamido)-4-((2,5-dimethyl-4,5-dihydropyrazolo[1,5-a]quinoxalin-6-yl-4,4-d2)amino)-N-(methyl-d3)nicotinamide]",,,30 to 300 nM,< 30 nM,> 1000 nM,< 30 nM,
"[2H]C([2H])([2H])NC(=O)c1cnc(N2CCN(C(C)C)C2=O)cc1Nc1cccc2c1N(C)C([2H])([2H])c1cn(C)nc1-2 [Compound 63, 4-((2,5-dimethyl-4,5-dihydro-2H-pyrazolo[4,3-c]quinolin-6-yl-4,4-d2)amino)-6-(3-isopropyl-2-oxoimidazolidin-1-yl)-N-(methyl-d3)nicotinamide]",,,> 1000 nM,30 to 300 nM,> 1000 nM,< 30 nM,
"[2H]C([2H])([2H])NC(=O)c1nnc(NC(=O)NC)cc1Nc1nccc2c1N(C)Cc1cc(C)nn1-2 [Compound 79, 4-((2,5-dimethyl-4,5-dihydropyrazolo[1,5-a]pyrido[3,4-e]pyrazin-6-yl)amino)-N-(methyl-d3)-6-(3-methylureido)pyridazine-3-carboxamide]",,,> 1000 nM,30 to 300 nM,> 1000 nM,< 30 nM,
"[2H]C([2H])([2H])NC(=O)c1nnc(NC(=O)C2CC2)cc1Nc1nccc2c1N(C([2H])([2H])[2H])Cc1cn(C)nc1-2 [Compound 67, 6-(cyclopropanecarboxamido)-N-(methyl-d3)-4-((2-methyl-5-(methyl-d3)-4,5-dihydro-2H-pyrazolo[4,3-c][1,7]naphthyridin-6-yl)amino)pyridazine-3-carboxamide]",> 1000 nM,> 1000 nM,,< 30 nM,,< 30 nM,> 1000 nM
"[2H]C([2H])([2H])NC(=O)c1nnc(NC(=O)NC)cc1Nc1nccc2c1N(C)[C@@H](C)c1cn(C)nc1-2 (single isomer, unassigned) [Compound 80]",,,> 1000 nM,< 30 nM,> 1000 nM,< 30 nM,
"CNC(=O)c1nnc(Nc2ccc(F)cn2)cc1Nc1cccc2c1OCc1cn(C3COC3)nc1-2 [Compound 3, 6-[(5-fluoropyridin-2-yl)amino]-N-methyl-4-{[2-(oxetan-3-yl)-2H,4H-chromeno[4,3-c]pyrazol-6-yl]amino}pyridazine-3-carboxamide]",,,300 to 1000 nM,> 1000 nM,300 to 1000 nM,30 to 300 nM,
"[2H]C([2H])([2H])NC(=O)c1nnc(NC(=O)N(C)C)cc1Nc1nccc2c1N(C)C([2H])([2H])c1cn(C)nc1-2 [Compound 75, 4-((2,5-dimethyl-4,5-dihydro-2H-pyrazolo[4,3-c][1,7]naphthyridin-6-yl-4,4-d2)amino)-6-(3,3-dimethylureido)-N-(methyl-d3)pyridazine-3-carboxamide]",,,> 1000 nM,30 to 300 nM,> 1000 nM,< 30 nM,
"[2H]C([2H])([2H])NC(=O)c1cnc(NC(=O)C2CC2)cc1Nc1cccc2c1N(C)C([2H])([2H])c1ccnn1-2 [Compound 59, 6-(cyclopropanecarboxamido)-N-(methyl-d3)-4-((5-methyl-4,5-dihydropyrazolo[1,5-a]quinoxalin-6-yl-4,4-d2)amino)nicotinamide]",,,30 to 300 nM,< 30 nM,> 1000 nM,< 30 nM,
"[2H]C([2H])([2H])NC(=O)c1nnc(NC(=O)C2CC2)cc1Nc1cccc2c1N(C)Cc1cc(C)nn1-2 [Compound 52, 6-(cyclopropanecarboxamido)-4-((2,5-dimethyl-4,5-dihydropyrazolo[1,5-a]quinoxalin-6-yl)amino)-N-(methyl-d3)pyridazine-3-carboxamide]",,,300 to 1000 nM,< 30 nM,> 1000 nM,< 30 nM,
"CNC(=O)c1nnc(Nc2cc(C)nc(C)n2)cc1Nc1cccc2c1N(C)Cc1cn(C)nc1-2 [Compound 34, 4-((2,5-dimethyl-4,5-dihydro-2H-pyrazolo[4,3-c]quinolin-6-yl)amino)-6-((2,6-dimethylpyrimidin-4-yl)amino)-N-methylpyridazine-3-carboxamide]",,,30 to 300 nM,< 30 nM,30 to 300 nM,< 30 nM,
"CNC(=O)c1nnc(NC(=O)C2CC2)cc1Nc1cccc2c1OCc1cn(C3COC3)nc1-2 [Compound 4, 6-(cyclopropanecarboxamido)-N-methyl-4-((2-(oxetan-3-yl)-2,4-dihydrochromeno[4,3-c]pyrazol-6-yl)amino)pyridazine-3-carboxamide]",,,> 1000 nM,> 1000 nM,300 to 1000 nM,30 to 300 nM,
"[2H]C([2H])([2H])NC(=O)c1cnc(NC(=O)C2CC2)cc1Nc1nccc2c1N(C)Cc1cc(C)nn1-2 [Compound 71, 6-(cyclopropanecarboxamido)-4-((2,5-dimethyl-4,5-dihydropyrazolo[1,5-a]pyrido[3,4-e]pyrazin-6-yl)amino)-N-(methyl-d3)nicotinamide]",,,> 1000 nM,< 30 nM,> 1000 nM,< 30 nM,
"[2H]C([2H])([2H])NC(=O)c1nnc(NC(=O)C2CC2)cc1Nc1nccc2c1N(C)C([2H])([2H])c1cc(C)nn1-2 [Compound 73, 6-(cyclopropanecarboxamido)-4-((2,5-dimethyl-4,5-dihydropyrazolo[1,5-a]pyrido[3,4-e]pyrazin-6-yl-4,4-d2)amino)-N-(methyl-d3)pyridazine-3-carboxamide]",,,30 to 300 nM,< 30 nM,> 1000 nM,< 30 nM,
